Measured values taken from patent US8785460B2, “Tricyclic compounds and use thereof” (Takeda Pharmaceutical Company Limited, priority 2008, dated 2014).

Assays:
human CRF1 receptor = target: T1, human CRF1 receptor (Homo sapiens, UniProt P34998); experiment: Measurement of CRF Binding Inhibitory Rate (receptor binding experiment with 125I-CRF); conditions: human CRF1 receptor expressing CHO cellular membrane fraction, 50 pM 125I-CRF, room temperature 1.5 hr, 0.05 nM to 10 μM of compound; read-out: IC50 values (CRF binding inhibition)
T1 construct: expressed in transfected cells; host or cells: CHO cells (membrane fraction)
T1 sequence (P34998 24-415): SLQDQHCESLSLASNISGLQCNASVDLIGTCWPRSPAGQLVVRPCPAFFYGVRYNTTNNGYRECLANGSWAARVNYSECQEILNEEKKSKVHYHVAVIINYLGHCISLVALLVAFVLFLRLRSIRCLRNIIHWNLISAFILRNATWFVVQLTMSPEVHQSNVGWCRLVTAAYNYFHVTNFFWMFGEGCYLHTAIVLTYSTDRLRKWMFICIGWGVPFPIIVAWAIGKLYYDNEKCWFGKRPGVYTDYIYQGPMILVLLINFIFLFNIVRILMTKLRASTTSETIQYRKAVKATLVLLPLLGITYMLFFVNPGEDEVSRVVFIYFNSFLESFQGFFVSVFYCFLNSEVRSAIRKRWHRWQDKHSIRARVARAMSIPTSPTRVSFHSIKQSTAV

CCC(OC(=O)CO)c1ccc(Cl)c2nc3n(c12)CCCN3c1ccc(Cl)cc1Cl (centres unmarked) [Example 443, 1-[9-Chloro-1-(2,4-dichlorophenyl)-1,2,3,4-tetrahydropyrimido[1,2-a]benzimidazol-6-yl]propyl hydroxyacetate]
melting point: 191 to 193 °C | IC50 (human CRF1 receptor): < 1000 nM

CCC(NC(=O)OC)c1ccc(Cl)c2nc3n(c12)CCCN3c1ccc(Cl)cc1Cl (centres unmarked) [Example 446, Methyl {1-[9-chloro-1-(2,4-dichlorophenyl)-1,2,3,4-tetrahydropyrimido[1,2-a]benzimidazol-6-yl]propyl}carbamate]
melting point: 201 to 203 °C | IC50 (human CRF1 receptor): < 1000 nM

CCC(NC(=O)CC(F)(F)F)c1ccc(Cl)c2nc3n(c12)CCCN3c1ccc(Cl)cc1Cl (centres unmarked) [Example 447, N-{1-[9-Chloro-1-(2,4-dichlorophenyl)-1,2,3,4-tetrahydropyrimido[1,2-a]benzimidazol-6-yl]propyl}-3,3,3-trifluoropropanamide]
melting point: 285 to 290 °C | IC50 (human CRF1 receptor): < 1000 nM

CCC(CCO)c1ccc(Cl)c2nc3n(c12)CCCN3c1ccc(Cl)cc1Cl (centres unmarked) [Example 450, 3-[9-Chloro-1-(2,4-dichlorophenyl)-1,2,3,4-tetrahydropyrimido[1,2-a]benzimidazol-6-yl]pentan-1-ol]
melting point: 183 to 185 °C | IC50 (human CRF1 receptor): < 1000 nM

CCC(CC(C)=O)c1ccc(Cl)c2nc3n(c12)CCCN3c1ccc(Cl)cc1Cl (centres unmarked) [Example 452, 4-[9-Chloro-1-(2,4-dichlorophenyl)-1,2,3,4-tetrahydropyrimido[1,2-a]benzimidazol-6-yl]hexan-2-one]
melting point: 195 to 197 °C | IC50 (human CRF1 receptor): < 1000 nM

CCC(CCOC)c1ccc(Cl)c2nc3n(c12)CCCN3c1ccc(Cl)cc1Cl (centres unmarked) [Example 453, 9-Chloro-1-(2,4-dichlorophenyl)-6-(1-ethyl-3-methoxypropyl)-1,2,3,4-tetrahydropyrimido[1,2-a]benzimidazole]
melting point: 144 to 146 °C | IC50 (human CRF1 receptor): < 1000 nM

CCC(OCC(F)(F)F)c1ccc(Cl)c2nc3n(c12)CCCN3c1ccc(Cl)cc1Cl (centres unmarked) [Example 454, 9-Chloro-1-(2,4-dichlorophenyl)-6-[1-(2,2,2-trifluoroethoxy)propyl]-1,2,3,4-tetrahydropyrimido[1,2-a]benzimidazole]
melting point: 146 to 148 °C | IC50 (human CRF1 receptor): < 1000 nM

FC(F)(F)COC(c1ccc(Cl)c2nc3n(c12)CCCN3c1ccc(Cl)cc1Cl)C1CC1 (centres unmarked) [Example 455, 9-Chloro-6-[cyclopropyl (2,2,2-trifluoroethoxy)methyl]-1-(2,4-dichlorophenyl)-1,2,3,4-tetrahydropyrimido[1,2-a]benzimidazole]
melting point: 143 to 145 °C | IC50 (human CRF1 receptor): < 1000 nM

CCNC(CC)c1ccc(Cl)c2nc3n(c12)CCCN3c1ccc(Cl)cc1Cl (centres unmarked) [Example 458, 1-[9-Chloro-1-(2,4-dichlorophenyl)-1,2,3,4-tetrahydropyrimido[1,2-a]benzimidazol-6-yl]-N-ethylpropan-1-amine]
melting point: 124 to 127 °C | IC50 (human CRF1 receptor): < 1000 nM

CCC(NCC(F)(F)F)c1ccc(Cl)c2nc3n(c12)CCCN3c1ccc(Cl)cc1Cl (centres unmarked) [Example 459, 1-[9-Chloro-1-(2,4-dichlorophenyl)-1,2,3,4-tetrahydropyrimido[1,2-a]benzimidazol-6-yl]-N-(2,2,2-trifluoroethyl)propan-1-amine]
melting point: 133 to 135 °C | IC50 (human CRF1 receptor): < 1000 nM

CCC(c1ccc(Cl)c2nc3n(c12)CCCN3c1ccc(Cl)cc1Cl)S(=O)(=O)CC (centres unmarked) [Example 462]
melting point: 278 to 280 °C | IC50 (human CRF1 receptor): < 1000 nM

CCC(NC(=O)C(F)F)c1ccc(Cl)c2nc3n(c12)CCCN3c1ccc(Cl)cc1Cl (centres unmarked) [Example 463, N-{1-[9-Chloro-1-(2,4-dichlorophenyl)-1,2,3,4-tetrahydropyrimido[1,2-a]benzimidazol-6-yl]propyl}-2,2-difluoroacetamide]
melting point: 248 to 250 °C | IC50 (human CRF1 receptor): < 1000 nM

O=C(OC(c1ccc(Cl)c2nc3n(c12)CCCN3c1ccc(Cl)cc1Cl)C1CC1)C1CC1 (centres unmarked) [Example 478, 1-[9-Chloro-1-(2,4-dichlorophenyl)-1,2,3,4-tetrahydropyrimido[1,2-a]benzimidazol-6-yl](cyclopropyl)methyl cyclopropanecarboxylate]
melting point: 168 to 170 °C | IC50 (human CRF1 receptor): < 1000 nM

COCC(=O)OC(c1ccc(Cl)c2nc3n(c12)CCCN3c1ccc(Cl)cc1Cl)C1CC1 (centres unmarked) [Example 479]
melting point: 159 to 161 °C | IC50 (human CRF1 receptor): < 1000 nM

CCC(OC(=O)C1CC1)c1ccc(Cl)c2nc3n(c12)CCCN3c1ccc(OC)cc1Cl (centres unmarked) [Example 482, 1-[9-Chloro-1-(2-chloro-4-methoxyphenyl)-1,2,3,4-tetrahydropyrimido[1,2-a]benzimidazol-6-yl]propyl cyclopropanecarboxylate]
melting point: 130 to 132 °C | IC50 (human CRF1 receptor): < 1000 nM

CCOC(c1ccc(Cl)c2nc3n(c12)CCCN3c1ccc(Cl)cc1Cl)C1CC1 (centres unmarked) [Example 483, 9-Chloro-6-[cyclopropyl(ethoxy)methyl]-1-(2,4-dichlorophenyl)-1,2,3,4-tetrahydropyrimido[1,2-a]benzimidazole]
melting point: 138 to 140 °C | IC50 (human CRF1 receptor): < 1000 nM

CCN(CC)c1cccc2nc3n(c12)CCN(C)C3c1ccc(Cl)cc1Cl (centres unmarked) [Example 506, 1-(2,4-Dichlorophenyl)-N,N-diethyl-2-methyl-1,2,3,4-tetrahydropyrazino[1,2-a]benzimidazol-6-amine]
melting point: 186 to 187 °C | IC50 (human CRF1 receptor): < 1000 nM

CCN(CC)c1cccc2nc3n(c12)CCCNC3c1ccc(Cl)cc1Cl (centres unmarked) [Example 509, 1-(2,4-Dichlorophenyl)-N,N-diethyl-2,3,4,5-tetrahydro-1H-[1,4]diazepino[1,2-a]benzimidazol-7-amine]
melting point: 186 to 188 °C | IC50 (human CRF1 receptor): < 1000 nM

CCN(CC)c1cccc2nc3n(c12)CCCN=C3c1ccc(Cl)cc1Cl [Example 511, 1-(2,4-Dichlorophenyl)-N,N-diethyl-4,5-dihydro-3H-[1,4]diazepino[1,2-a]benzimidazol-7-amine]
melting point: 93 to 94 °C | IC50 (human CRF1 receptor): < 1000 nM
